Test results from patent publication US9302999B2, “Substituted triazoles as herbicides” (E. I. DU PONT DE NEMOURS AND COMPANY, priority 2012, dated 2016).

Tests used:
Assay type in all cases: in vivo
[1] = test system: sandbur (southern sandbur, Cenchrus echinatus); experiment: Test F pre-/postemergence: sandbur
From the text: (§1) Seeds of plant species selected from corn (Zea mays), soybean (Glycine max), velvetleaf (Abutilon theophrasti), lambsquarters (Chenopodium album), poinsettia, wild (wild poinsettia, Euphorbia heterophylla), pigweed, palmer (palmer pigweed, Amaranthus palmeri), waterhemp (common waterhemp, Amaranthus rudis), surinam grass (Brachiaria decumbens), crabgrass, Brazil (Brazilian crabgrass, Digitaria horizontalis), panicum, fall (fall panicum Panicum dichotomiflorum), crabgrass, large (large crabgrass, Digitaria sanguinalis), foxtail, giant (giant foxtail, Setaria faberii), foxtail, green (green foxtail Setaria viridis), goosegrass (Eleusine indica), ragweed (common ragweed, Ambrosia elatior), barnyardgrass (Echinochloa crus-galli), sandbur (southern sandbur, Cenchrus echinatus), arrowleaf sida (Sida rhombifolia), ryegrass, Italian (Italian ryegrass, Lolium multiflorum), dayflower, VA (Virginia (VA) dayflower, Commelina virginica), field bindweed (Convolvulus arvensis), cocklebur (common cocklebur, Xanthium strumarium), morningglory (Ipomoea coccinea), nightshade (eastern black nightshade, Solanum ptycanthum), kochia (Kochia scoparia), nutsedge, yellow (yellow nutsedge, Cyperus esculentus), johnsongrass (Sorghum halepense), smartweed (ladysthumb smartweed, Polygonum persicaria), and beggarticks (hairy beggarticks, Bidens pilosa), were planted into a silt loam soil and treated preemergence with test chemicals formulated in a non-phytotoxic solvent mixture which included a surfactant. At the same time, plants selected from these crop and weed species and also pigweed (Amaranthus retroflexus), waterhemp_RES1 (ALS/Triazine resistant common waterhemp, Amaranthus rudis) and waterhemp_RES2 (ALS/HPPD resistant common waterhemp, Amaranthus rudis) were planted in pots containing a planting medium comprising spaghnum peat moss, vermiculite, wetting agent and starter nutrients treated with postemergence applications of some of the test chemicals formulated in the same manner. Plants ranged in height from 2 to 18 cm for postemergence treatments (1- to 4-leaf stage).
(§2) Treated plants and controls were maintained in a greenhouse for 14 to 21 days, after which time all species were compared to controls and visually evaluated. Plant response ratings, summarized in Table E, are based on a scale of 0 to 100 where 0 is no effect and 100 is complete control. A dash (-) response means no test result.

[2] = test system: nightshade (eastern black nightshade, Solanum ptycanthum); experiment: Test F pre-/postemergence: nightshade; settings: Preemergence
From the text: as §1, §2

[3] = test system: beggarticks (hairy beggarticks, Bidens pilosa); experiment: Test F pre-/postemergence: beggarticks
From the text: as §1, §2

[4] = test system: ryegrass, Italian (Italian ryegrass, Lolium multiflorum); experiment: Test D pre-/postemergence: ryegrass, Italian
From the text: (§3) Seeds of plant species selected from bluegrass (annual bluegrass, Poa annua), blackgrass (Alopecurus myosuroides), canarygrass (Phalaris minor), chickweed (common chickweed, Stellaria media), galium (catchweed bedstraw, Galium aparine), bromegrass, downy (downy bromegrass, Bromus tectorum), field poppy (Papaver rhoeas), field violet (Viola arvensis), foxtail, green (green foxtail, Setaria viridis), deadnettle (henbit deadnettle, Lamium amplexicaule), ryegrass, Italian (Italian ryegrass, Lolium multiflorum), kochia (Kochia scoparia), lambsquarters (Chenopodium album), oilseed rape (Brassica napus), pigweed (Amaranthus retroflexus), Russian thistle (Salsola iberica), chamomile (scentless chamomile, Matricaria inodora), speedwell (bird's-eye speedwell, Veronica persica), barley, spring (spring barley, Hordeum vulgare), wheat, spring (spring wheat, Triticum aestivum), buckwheat, wild (wild buckwheat, Polygonum convolvulus), mustard, wild (wild mustard, Sinapis arvensis), oat, wild (wild oat, Avena fatua), radish, wild (wild radish, Raphanus raphanistrum), windgrass (Apera spica-venti), barley, winter (winter barley, Hordeum vulgare), and wheat, winter (winter wheat, Triticum aestivum) were planted into a silt loam soil and treated preemergence with test chemicals formulated in a non-phytotoxic solvent mixture which included a surfactant. At the same time, these same crop and weed species were planted in pots containing the planting medium comprising spaghnum peat moss, vermiculite, wetting agent and starter nutrients and treated with postemergence applications of the test chemicals formulated in the same manner. Plants ranged in height from 2 to 18 cm (1- to 4-leaf stage).
as §2, with “controlled growth environment” for “greenhouse”, “days” for “days,”, “D,” for “E,”

[5] = test system: barley, spring (spring barley, Hordeum vulgare); experiment: Test D pre-/postemergence: barley, spring
From the text: as §3
as §2, with “controlled growth environment” for “greenhouse”, “days” for “days,”, “D,” for “E,”

[6] = Preemergence, 16 g ai/ha, scale 0 to 100, 0 no effect, 100 complete control
[7] = Preemergence, 31 g ai/ha, scale 0 to 100, 0 no effect, 100 complete control
[8] = Preemergence, 125 g ai/ha, scale 0 to 100
[9] = Preemergence, 250 g ai/ha, scale 0 to 100
[10] = 16 g ai/ha, scale 0 to 100, 0 no effect, 100 complete control
[11] = 31 g ai/ha, scale 0 to 100, 0 no effect, 100 complete control
[12] = Preemergence, 62 g ai/ha, scale 0 to 100
[13] = Postemergence, 31 g ai/ha, scale 0 to 100 (0 no effect, 100 complete control)
[14] = Postemergence, 62 g ai/ha, scale 0 to 100 (0 no effect, 100 complete control)
[15] = Postemergence, 125 g ai/ha, scale 0 to 100, 0 no effect, 100 complete control
[16] = Postemergence, 250 g ai/ha, scale 0 to 100 (0 no effect, 100 complete control)
[17] = Postemergence, 16 g ai/ha, scale 0 to 100
[18] = Postemergence, 8 g ai/ha, scale 0 to 100
[19] = Postemergence, 31 g ai/ha, scale 0 to 100
[20] = Postemergence, 62 g ai/ha, scale 0 to 100
[21] = Postemergence, 125 g ai/ha, scale 0 to 100

Compound | Plant response rating: Ryegrass, Italian [4, 13] | Plant response rating: Ryegrass, Italian [4, 14] | Plant response rating: Ryegrass, Italian [4, 15] | Plant response rating: Ryegrass, Italian [4, 16] | Plant response rating, Ryegrass, Italian [4, 17] | Plant response rating: Barley, Spring [5, 13] | Plant response rating: Barley, Spring [5, 14] | Plant response rating: Barley, Spring [5, 15] | Plant response rating: Barley, Spring [5, 16] | Plant response rating, Barley, Spring [5, 17] | Plant response rating, Ryegrass, Italian [4, 7] | Plant response rating, Ryegrass, Italian [4, 12] | Plant response rating, Ryegrass, Italian [4, 8] | Plant response rating, Ryegrass, Italian [4, 9] | Plant response rating, Barley, Spring [5, 7] | Plant response rating, Barley, Spring [5, 12] | Plant response rating, Barley, Spring [5, 8] | Plant response rating, Barley, Spring [5, 9] | also measured
COc1nn(-c2cccc(F)c2)nc1Cc1ccnc(C(F)(F)F)c1 [Compound 139] | – | – | – | – | – | – | – | – | – | – | – | – | – | – | – | – | – | – | Plant response rating, Sandbur [1, 6]: 0; Plant response rating, Sandbur [1, 7]: 5; Plant response rating, Sandbur [1, 8]: 35; Plant response rating, Sandbur [1, 9]: 40; Plant response rating, Nightshade [2, 10]: 20; Plant response rating, Nightshade [2, 11]: 35; Plant response rating, Nightshade ([2]; 125 g ai/ha, scale 0 to 100): 100; Plant response rating, Nightshade ([2]; 250 g ai/ha, scale 0 to 100): 100; Plant response rating, Beggarticks [3, 6]: 0; Plant response rating, Beggarticks [3, 7]: 0; Plant response rating, Beggarticks [3, 12]: 0; Plant response rating, Beggarticks [3, 8]: 0; Plant response rating, Beggarticks [3, 9]: 0
Cc1nn(-c2ccc(C(F)(F)F)cn2)nc1Oc1ccnc(C(F)(F)F)c1 [Compound 23] | 10 | 10 | 10 | 15 | 5 | 0 | 10 | 10 | 15 | 0 | – | – | – | – | – | – | – | – | –
Cc1nn(-c2ccc(F)cc2F)nc1Oc1ccnc(C(F)(F)F)c1 [Compound 146] | – | – | – | – | – | – | – | – | – | – | – | – | – | – | – | – | – | – | Plant response rating, Sandbur [1, 6]: 0; Plant response rating, Sandbur [1, 7]: 0; Plant response rating, Sandbur [1, 8]: 25; Plant response rating, Sandbur [1, 9]: 70; Plant response rating, Nightshade [2, 10]: 0; Plant response rating, Nightshade [2, 11]: 10; Plant response rating, Nightshade ([2]; 125 g ai/ha, scale 0 to 100): 65; Plant response rating, Nightshade ([2]; 250 g ai/ha, scale 0 to 100): 100; Plant response rating, Beggarticks [3, 6]: 0; Plant response rating, Beggarticks [3, 7]: 0; Plant response rating, Beggarticks [3, 12]: 0; Plant response rating, Beggarticks [3, 8]: 0; Plant response rating, Beggarticks [3, 9]: 0
FC(F)(F)COc1nn(-c2ccc(C(F)(F)F)cc2)nc1Cc1ccnc(C(F)(F)F)c1 [Compound 14, 4-[[5-(2,2,2-trifluoroethoxy)-2-[4-(trifluoromethyl)phenyl]-2H-1,2,3-triazol-4-yl]methyl]-2-(trifluoromethyl)pyridine] | 5 | 20 | 25 | 35 | – | 25 | 25 | 30 | 40 | – | 0 | 25 | 25 | 50 | 0 | 10 | 15 | 20 | –
Cc1nn(-c2ccnc(Cl)c2)nc1Cc1ccnc(C(F)(F)F)c1 [Compound 141] | – | – | – | – | – | – | – | – | – | – | – | – | – | – | – | – | – | – | Plant response rating, Sandbur [1, 18]: 10; Plant response rating, Sandbur [1, 17]: 10; Plant response rating, Sandbur [1, 19]: 20; Plant response rating, Sandbur [1, 20]: 30; Plant response rating, Sandbur [1, 21]: 35; Plant response rating, Beggarticks [3, 18]: 40; Plant response rating, Beggarticks [3, 17]: 40; Plant response rating, Beggarticks [3, 19]: 50; Plant response rating, Beggarticks [3, 20]: 60; Plant response rating, Beggarticks [3, 21]: 75
COc1nn(-c2ccc(C(F)(F)F)cc2)nc1Cc1ccnc(C(F)(F)F)c1 [Compound 15, 4-[[5-methoxy-2-[4-(trifluoromethyl)phenyl]-2H-1,2,3-triazol-4-yl]methyl]-2-(trifluoromethyl)pyridine] | 5 | 5 | 10 | 20 | 0 | 15 | 25 | 30 | 40 | 10 | 0 | 5 | 25 | 70 | 0 | 0 | 10 | 15 | –
COc1nn(-c2ccc(C(F)(F)F)cc2)nc1Cc1ccnc(C(F)F)c1 [Compound 138] | 25 | 35 | 40 | 50 | 10 | 20 | 25 | 35 | 40 | 10 | – | – | – | – | – | – | – | – | –
Cc1nn(-c2ccc(C(F)(F)F)cc2)nc1Oc1ccnc(C(F)(F)F)c1 [Compound 120] | 5 | 10 | 15 | 30 | 5 | 10 | 15 | 15 | 30 | 5 | 5 | 40 | 80 | 100 | 0 | 5 | 10 | 20 | Plant response rating, Ryegrass, Italian [4, 6]: 0; Plant response rating, Barley, Spring [5, 6]: 0
Cc1nn(-c2ccc(C(F)(F)F)cn2)nc1Cc1cccc(C(F)(F)F)c1 [Compound 106] | 5 | 5 | 10 | 20 | 5 | 10 | 15 | 20 | 30 | 5 | 0 | 0 | 0 | 0 | 0 | 0 | 0 | 0 | –
